Earlier results, collected in patent publication US20140349957A1, “Compositions for Photodynamic Therapy Chemically Modified to Increase Epithelia Penetration and Cellular Bioavailability” (YAGNA LIMITED, priority 2011, published 2014).

Test system: cells which have incorporated the drug

## Cc1cn([C@H]2C[C@H](O)[C@@H](CO)O2)c(=O)[nH]c1=S [4 thiothymidine, 4-thiothymidine]
Drug alone, no UV-A
  toxicity of exposure to drug alone: does not result in appreciable toxicity
Excitation at 335 nm (UV-A)
  toxicity to cells upon excitation: results in toxicity to the cells which have incorporated the drug
